The results in this text go back to patent publication US20230286958A1, “PLASMA KALLIKREIN INHIBITORS” (Merck Sharp & Dohme LLC, priority 2020, published 2023).

The target of one assay is Human plasma kallikrein (Homo sapiens (Human), UniProt P03952). Description: Kallikrein Assay (fluorogenic substrate Acetyl-K-P-R-AFC). In kind it is biochemical. The conditions noted are these: Plasma Kallikrein (PKal). Put shortly: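 Ki is derived from IC50 with the Cheng-Prusoff equation, and IC50 from the inflection point of a four-parameter logistic curve. The rate of AFC release is read with 0.5 nM purified enzyme and […] substrate at room temperature or 37 °C.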
Chain of Human plasma kallikrein (P03952 391-638): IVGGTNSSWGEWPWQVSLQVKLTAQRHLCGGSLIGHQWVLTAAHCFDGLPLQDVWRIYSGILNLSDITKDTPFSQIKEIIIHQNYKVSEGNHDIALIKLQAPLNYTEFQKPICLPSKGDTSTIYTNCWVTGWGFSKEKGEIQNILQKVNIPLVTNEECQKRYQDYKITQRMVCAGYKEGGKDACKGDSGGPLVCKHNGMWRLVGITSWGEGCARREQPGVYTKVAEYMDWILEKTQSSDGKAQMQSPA
Chain of Human plasma kallikrein (P03952 20-390 partner): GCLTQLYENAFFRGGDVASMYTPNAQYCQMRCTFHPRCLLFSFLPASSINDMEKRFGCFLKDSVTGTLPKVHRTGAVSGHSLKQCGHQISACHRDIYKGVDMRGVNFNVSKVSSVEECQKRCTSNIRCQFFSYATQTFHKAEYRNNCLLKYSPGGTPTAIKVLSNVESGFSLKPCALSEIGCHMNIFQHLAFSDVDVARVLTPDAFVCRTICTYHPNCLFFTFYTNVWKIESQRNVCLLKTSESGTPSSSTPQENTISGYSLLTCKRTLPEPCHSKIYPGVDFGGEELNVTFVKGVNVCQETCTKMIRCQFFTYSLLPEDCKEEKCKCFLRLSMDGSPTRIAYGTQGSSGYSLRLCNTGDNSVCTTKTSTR

The target of a further assay is human Factor XIa (Homo sapiens (Human), UniProt P03951). Description: Factor XIa Assay (fluorogenic substrate GPR-AFC). The class given is biochemical. The conditions noted are these: Factor XIa (FXIa).
Chain of human Factor XIa (P03951 388-625 limits assumed): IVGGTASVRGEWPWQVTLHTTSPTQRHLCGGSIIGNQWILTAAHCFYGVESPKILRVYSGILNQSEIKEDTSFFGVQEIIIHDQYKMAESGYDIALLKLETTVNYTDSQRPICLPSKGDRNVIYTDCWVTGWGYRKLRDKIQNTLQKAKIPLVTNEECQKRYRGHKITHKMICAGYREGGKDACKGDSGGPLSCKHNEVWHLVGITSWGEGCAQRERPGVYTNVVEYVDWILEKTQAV
Chain of human Factor XIa (P03951 19-387 partner limits assumed): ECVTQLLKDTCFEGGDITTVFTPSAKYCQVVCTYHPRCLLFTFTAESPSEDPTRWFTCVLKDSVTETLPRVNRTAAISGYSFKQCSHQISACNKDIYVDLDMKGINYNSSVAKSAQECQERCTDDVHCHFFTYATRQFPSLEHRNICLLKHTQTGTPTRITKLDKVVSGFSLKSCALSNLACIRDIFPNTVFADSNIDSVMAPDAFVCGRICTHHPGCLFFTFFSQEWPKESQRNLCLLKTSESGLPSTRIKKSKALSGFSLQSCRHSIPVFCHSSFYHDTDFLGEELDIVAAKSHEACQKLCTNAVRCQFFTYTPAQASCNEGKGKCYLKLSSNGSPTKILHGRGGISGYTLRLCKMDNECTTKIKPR

The term IC50 denotes the midpoint of a concentration-inhibition curve. `CCc1ncc(-c2c(C(F)F)ccc(Cl)c2F)nc1C(=O)Nc1cnn(C(C)c2cnc(N3C[C@H]4C[C@H]4C3=O)c(C)c2)c1` (mixture of isomers) [Example 214, 6-(3-Chloro-6-(difluoromethyl)-2-fluorophenyl)-3-ethyl-N-(1-((S and R)-1-(5-methyl-6-((1R,5S)-2-oxo-3-azabicyclo[3.1.0]hexan-3-yl)pyridin-3-yl)ethyl)-1H-pyrazol-4-yl)pyrazine-2-carboxamide]: the half-maximal inhibitory concentration (IC50) on Human plasma kallikrein stood at 1.2 nM; at human Factor XIa, 944 nM.

`CC(c1ccc(N2C[C@H]3C[C@H]3C2=O)nc1)n1cc(NC(=O)c2cncc(-c3c(C#N)ccc(Cl)c3F)n2)cn1` (single isomer, unassigned) [Example 90, 6-(3-Chloro-6-cyano-2-fluorophenyl)-N-(1-((R or S)-1-(6-((1R,SS)-2-oxo-3-azabicyclo[3.1.0]hexan-3-yl)pyridin-3-yl)ethyl)-1H-pyrazol-4-yl)pyrazine-2-carboxamide]: the figures for the IC50 at Human plasma kallikrein and against human Factor XIa were 13.7 nM and above 10000 nM, respectively.

As to `Cc1nc(C(C)n2cc(NC(=O)c3nc(-c4c(C(F)F)ccc(Cl)c4F)cnc3C(F)F)cn2)cnc1N1C[C@H]2C[C@H]2C1=O` (single isomer, unassigned) [Example 101, 6-(3-Chloro-6-(difluoromethyl)-2-fluorophenyl)-3-(difluoromethyl)-N-(1-((R or S)-1-(6-methyl-5-((1R,5S)-2-oxo-3-azabicyclo[3.1.0]hexan-3-yl)pyrazin-2-yl)ethyl)-1H-pyrazol-4-yl)pyrazine-2-carboxamide], the half-maximal inhibitory concentration (IC50) on Human plasma kallikrein worked out at 0.6 nM; on human Factor XIa, 3950 nM.

With `Cc1ncc(-c2c(C(F)F)ccc(Cl)c2F)nc1C(=O)Nc1cnn(C(C)c2cnc(N3C[C@H]4C[C@H]4C3=O)c3c2OCO3)c1` (single isomer, unassigned) [Example 252, 6-(3-Chloro-6-(difluoromethyl)-2-fluorophenyl)-3-methyl-N-(1-((R or S)-1-(4-((1R,5S)-2-oxo-3-azabicyclo[3.1.0]hexan-3-yl)-[1,3]dioxolo[4,5-c]pyridin-7-yl)ethyl)-1H-pyrazol-4-yl)pyrazine-2-carboxamide], the IC50 amounted to 0.9 nM on Human plasma kallikrein and 1830 nM against human Factor XIa.

Regarding `CC(c1ncc(N2C[C@H]3C[C@H]3C2=O)cc1F)n1cc(NC(=O)c2cncc(-c3c(C(F)F)ccc(Cl)c3F)n2)cn1` (single isomer, unassigned) [Example 146, 6-(3-Chloro-6-(difluoromethyl)-2-fluorophenyl)-N-(1-((R or S)-1-(3-fluoro-5-((1R,5S)-2-oxo-3-azabicyclo[3.1.0]hexan-3-yl)pyridin-2-yl)ethyl)-1H-pyrazol-4-yl)pyrazine-2-carboxamide], the results for the IC50 on Human plasma kallikrein and at human Factor XIa were 9.8 nM and above 10000 nM, respectively.

With `Cc1nc([C@@H](C)n2cc(NC(=O)c3nc(-c4c(C(F)F)ccc(Cl)c4F)cnc3C)cn2)ncc1N1C[C@H]2C[C@H]2C1=O` [Example 2, 6-(3-Chloro-6-(difluoromethyl)-2-fluorophenyl)-3-methyl-N-(1-((R)-1-(4-methyl-5-((1R,5S)-2-oxo-3-azabicyclo[3.1.0]hexan-3-yl)pyrimidin-2-yl)ethyl)-1H-pyrazol-4-yl)pyrazine-2-carboxamide], the values for the IC50 against Human plasma kallikrein and against human Factor XIa were 11.9 nM and above 10000 nM, respectively.

Turning to `Cc1cc(C(C)n2cc(NC(=O)c3nc(-c4c(C#N)ccc(Cl)c4F)cnc3C)cn2)nnc1N1C[C@H]2C[C@H]2C1=O` (single isomer, unassigned) [Example 236, 6-(3-Chloro-6-cyano-2-fluorophenyl)-3-methyl-N-(1-((R or S)-1-(5-methyl-6-((1R,5S)-2-oxo-3-azabicyclo[3.1.0]hexan-3-yl)pyridazin-3-yl)ethyl)-1H-pyrazol-4-yl)pyrazine-2-carboxamide], the figures for the concentration for half-maximal inhibition (IC50) at Human plasma kallikrein and against human Factor XIa were 0.7 nM and 750 nM, respectively.

On to `Cc1nc([C@H](C)n2cc(NC(=O)c3nc(-c4c(C(F)F)ccc(Cl)c4F)cnc3C)cn2)ncc1N1C[C@H]2C[C@H]2C1=O` [Example 1, 6-(3-Chloro-6-(difluoromethyl)-2-fluorophenyl)-3-methyl-N-(1-((S)-1-(4-methyl-5-((1R,5S)-2-oxo-3-azabicyclo[3.1.0]hexan-3-yl)pyrimidin-2-yl)ethyl)-1H-pyrazol-4-yl)pyrazine-2-carboxamide], for which the IC50 at Human plasma kallikrein is 0.9 nM; against human Factor XIa it was above 10000 nM.

For `Cc1ncc(-c2c(C(F)F)ccc(Cl)c2F)nc1C(=O)Nc1cnn(C(C)c2cnc(N3C[C@H]4C[C@H]4C3=O)nc2)c1` (single isomer, unassigned) [Example 29, 6-(3-Chloro-6-(difluoromethyl)-2-fluorophenyl)-3-methyl-N-(1-((S or R)-1-(2-((1R,5S)-2-oxo-3-azabicyclo[3.1.0]hexan-3-yl)pyrimidin-5-yl)ethyl)-1H-pyrazol-4-yl)pyrazine-2-carboxamide], the IC50 on Human plasma kallikrein amounted to 9.6 nM; on human Factor XIa it was 2040 nM.

On to `COCc1ncc(-c2c(C(F)F)ccc(Cl)c2F)nc1C(=O)Nc1cnn(C(C)c2cnc(N3C[C@H]4C[C@H]4C3=O)c(C)n2)c1` (single isomer, unassigned) [Example 125, 6-(3-Chloro-6-(difluoromethyl)-2-fluorophenyl)-3-(methoxymethyl)-N-(1-((S or R)-1-(6-methyl-5-((1R,5S)-2-oxo-3-azabicyclo[3.1.0]hexan-3-yl)pyrazin-2-yl)ethyl)-1H-pyrazol-4-yl)pyrazine-2-carboxamide], for which the IC50 at Human plasma kallikrein amounted to 1.2 nM; at human Factor XIa, 449 nM.

Turning to `O=C(Nc1cnn(Cc2ccc(N3C[C@H]4C[C@H]4C3=O)cc2)c1)c1cncc(-c2c(C(F)F)ccc(Cl)c2F)n1` [Example 145, 6-(3-Chloro-6-(difluoromethyl)-2-fluorophenyl)-N-(1-(4-((1R,5S)-2-oxo-3-azabicyclo[3.1.0]hexan-3-yl)benzyl)-1H-pyrazol-4-yl)pyrazine-2-carboxamide], the IC50 at Human plasma kallikrein was 2.4 nM; at human Factor XIa, above 10000 nM.

As for `Cc1nc(Cn2cc(NC(=O)c3nc(-c4c(C(F)F)ccc(Cl)c4F)cnc3C)cn2)ccc1N1C[C@H]2C[C@H]2C1=O` [Example 63, 6-(3-Chloro-6-(difluoromethyl)-2-fluorophenyl)-3-methyl-N-(1-((6-methyl-5-((1R,SS)-2-oxo-3-azabicyclo[3.1.0]hexan-3-yl)pyridin-2-yl)methyl)-1H-pyrazol-4-yl)pyrazine-2-carboxamide], the IC50 on Human plasma kallikrein is 1.7 nM; against human Factor XIa it was above 10000 nM.

`Cc1nc(N2CCN(C)C2=O)ncc1[C@H](C)n1cc(NC(=O)c2nc(-c3c(C(F)F)ccc(Cl)c3F)cnc2C)cn1` [Example 207, (S)-6-(3-Chloro-6-(difluoromethyl)-2-fluorophenyl)-3-methyl-N-(1-(1-(4-methyl-2-(3-methyl-2-oxoimidazolidin-1-yl)pyrimidin-5-yl)ethyl)-1H-pyrazol-4-yl)pyrazine-2-carboxamide]: the IC50 on Human plasma kallikrein is 8.6 nM; on human Factor XIa, 3280 nM.

Turning to `Cc1cc(Cn2cc(NC(=O)c3cncc(-c4c(C(F)F)ccc(Cl)c4F)n3)cn2)ncc1N1C[C@H]2C[C@H]2C1=O` [Example 65, 6-(3-Chloro-6-(difluoromethyl)-2-fluorophenyl)-N-(1-((4-methyl-5-((1R,5S)-2-oxo-3-azabicyclo[3.1.0]hexan-3-yl)pyridin-2-yl)methyl)-1H-pyrazol-4-yl)pyrazine-2-carboxamide], the results for the IC50 at Human plasma kallikrein and against human Factor XIa were 35.7 nM and above 10000 nM, respectively.
